Earlier results, collected in patent publication US8962595B2, “Compositions of small molecule therapeutics” (Nexmed Holdings, Inc., priority 2010, dated 2015).

Conditions: water

In the case of `NS(=O)(=O)c1cc2c(cc1Cl)N=CNS2(=O)=O` [Chlorothiazide, chlorothiazide], the “Sol. H2O (reported solubility from the literature)” value is given as 3000 µg/mL.
